Here are results for 11 molecules from US10172868B2, “Substituted quinazolines for inhibiting kinase activity” (NeuPharma, Inc., priority 2013, dated 2019).

One assay addresses FGFR1 (Homo sapiens (Human), UniProt P11362). Description: Z'-LYTE kinase inhibition assay, FGFR1. The note with it: compound at 0.041 μM; read-out: % inhibition against FGFR1. It counts as biochemical. The protocol:
(§1) Inhibitory activities of compounds against BTK, EGFR and EGFR mutants (EGFR L858R, EGFR T790M, EGFR L858R/T790M), FGFR1, FGFR2, JAK2, JAK3 and KDR were measured by Invitrogen using Z'-LYTE® Method as briefly described in the following.
(§2) Test Compounds are screened in 1% DMSO (final) in the well. For 10 point titrations, 3-fold serial dilutions are conducted from the starting concentration. All ATP Solutions are diluted to a 4× working concentration in Kinase Buffer (50 mM HEPES pH 7.5, 0.01% BRIJ-35, 10 mM MgCl2, 1 mM EGTA). Peptide/Kinase Mixtures are diluted to a 2× working concentration in the appropriate Kinase Buffers as described below.
(v) Peptide/Kinase Mixtures for Measurement of FGFR1:
The 2×FGFR1/Tyr 04 mixture is prepared in 50 mM HEPES pH 7.5, 0.01% BRIJ-35, 10 mM MgCl2, 4 mM MnCl2, 1 mM EGTA, 2 mM DTT. The final 10 μL Kinase Reaction consists of 0.41-3.5 ng FGFR1 and 2 μM Tyr 04 in 50 mM HEPES pH 7.5, 0.01% BRIJ-35, 10 mM MgCl2, 2 mM MnCl2, 1 mM EGTA, 1 mM DTT. After the 1 hour Kinase Reaction incubation, 5 μL of a 1:64 dilution of Development Reagent B is added.
(§3) Reaction starts by 30-second shaking of mixture consisting of 2.5 μL 4× test compound, […] 2× kinase reaction mixture and 2.5 μL 4×ATP Solution on Bar-coded Corning, low volume NBS, black 384-well plate (Corning Cat. #3676). Then the mixture is incubated for 60-minute at room temperature for the kinase reaction, followed by addition of 5 μL of a 1:1024 dilution of development reagent A and 30-second plate shake. The mixture is then incubated for another 60-minute at room temperature for development reaction. Finally fluorescence is read by plate reader.
To determine IC50 of a compound against EGFR, EGFR mutant and other kinases, a series of concentrations of the compound were tested for the inhibition. […] The scale utilized in Table 4 is as follows: +++ less than 100 nM, ++ 100-500 nM and + greater than 500 nM.

In another assay the test system is HCC827 cells. Description: cells. The note with it: Homo sapiens, HCC827, 72 h, read-out: IC50 in HCC827 cells.
In another assay the test system is H1299 cells. Put plainly: Inhibition of cancer cell growth, MTT assay, H1299. The note with it: Homo sapiens, NCI-H1299, 72 h, read-out: IC50 in H1299 cells. (Tetrazolium assays rely on reduction of a dye to a coloured formazan, in cell work by metabolically active cells.)
In the next assay the test system is H1975 cells. Description: Inhibition of cancer cell growth, MTT assay, H1975. The note with it: Homo sapiens, NCI-H1975, 72 h, read-out: IC50 in H1975 cells.
Another assay deals with EGFR (ErbB1) (Homo sapiens (Human), UniProt P00533). Put plainly: Z'-LYTE kinase inhibition assay, EGFR. It counts as biochemical. The note with it: for inhibition at 0.041 µM: read-out: % inhibition against EGFR (Compound at 0.041 μM); for inhibition at 1 µM: read-out: % inhibition against EGFR (Compound at 1 μM); for IC50: read-out: IC50 against EGFR. Put shortly:
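Z'-LYTE FRET assay run with 1.1-5.25 ng EGFR and 2 μM peptide substrate in 50 mM HEPES pH 7.5, 10 mM MgCl2, 2 mM MnCl2, 1 mM EGTA, 1 mM DTT, 0.01% BRIJ-35, 1% DMSO. Kinase reaction 60 min at room temperature, then 60 min development; IC50 from 10-point 3-fold titrations.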

In another assay the target is EGFR (ErbB1) T790M L858R (Homo sapiens (Human), UniProt P00533, L858R/T790M). Put plainly: Z'-LYTE kinase inhibition assay, EGFR L858R/T790M. The class given is biochemical. To be noted: for inhibition at 0.0137 µM: read-out: % inhibition against EGFR L858R/T790M (Compound at 0.0137 μM); for IC50: read-out: IC50 against EGFR L858R/T790M; for inhibition at 1 µM: read-out: % inhibition against EGFR L858R/T790M (Compound at 1 μM). Put shortly: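 Z'-LYTE FRET peptide assay at 1% DMSO, 10-point 3-fold titrations; kinase/peptide mix in 50 mM HEPES pH 6.5, 0.01% BRIJ-35, 10 mM MgCl2, 1 mM EGTA, 0.02% NaN3. Kinase reaction ran 60 min at room temperature, followed by 60 min development and a fluorescence read. IC50 derived from the concentration series.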

The subject of another assay is A431 cells. Description: cells. The note with it: Homo sapiens, A-431, 72 h, read-out: IC50 in A431 cells.
In a further assay the test system is H3255 cells. Put plainly: Inhibition of cancer cell growth, MTT assay, H3255. To be noted: Homo sapiens, NCI-H3255, 72 h, read-out: IC50 in H3255 cells.
In another assay the target is BTK (Homo sapiens (Human), UniProt Q06187). Description: Z'-LYTE kinase inhibition assay, BTK. The class given is biochemical. To be noted: for inhibition at 0.041 µM: compound at 0.041 μM, read-out: % inhibition against BTK; for IC50: read-out: IC50 against BTK. Put shortly:
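Z'-LYTE FRET assay with Tyr 01 peptide in 50 mM HEPES pH 7.5, 10 mM MgCl2, 1 mM EGTA, 0.01% BRIJ-35. Compounds in 1% DMSO were tested as 10-point, 3-fold titrations.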

The next assay addresses JAK2 (Homo sapiens (Human), UniProt O60674). Description: Z'-LYTE kinase inhibition assay, JAK2. The class given is biochemical. To be noted: compound at 0.041 μM; read-out: % inhibition against JAK2. As for the experimental part: as §1, §2
(v) Peptide/Kinase Mixtures for Measurement of JAK2:
The 2×JAK2/Tyr 06 mixture is prepared in 50 mM HEPES pH 7.5, 0.01% BRIJ-35, 10 mM MgCl2, 1 mM EGTA. The final 10 μL Kinase Reaction consists of 0.06-0.81 ng JAK2 and 2 μM Tyr 06 in 50 mM HEPES pH 7.5, 0.01% BRIJ-35, 10 mM MgCl2, 1 mM EGTA. After the 1 hour Kinase Reaction incubation, 5 μL of a 1:64 dilution of Development Reagent A is added.
as §3

Structures are written as SMILES. A value given as a limit tells only on which side of the number the result lay.

BTK, sequence (Q06187 whole entry): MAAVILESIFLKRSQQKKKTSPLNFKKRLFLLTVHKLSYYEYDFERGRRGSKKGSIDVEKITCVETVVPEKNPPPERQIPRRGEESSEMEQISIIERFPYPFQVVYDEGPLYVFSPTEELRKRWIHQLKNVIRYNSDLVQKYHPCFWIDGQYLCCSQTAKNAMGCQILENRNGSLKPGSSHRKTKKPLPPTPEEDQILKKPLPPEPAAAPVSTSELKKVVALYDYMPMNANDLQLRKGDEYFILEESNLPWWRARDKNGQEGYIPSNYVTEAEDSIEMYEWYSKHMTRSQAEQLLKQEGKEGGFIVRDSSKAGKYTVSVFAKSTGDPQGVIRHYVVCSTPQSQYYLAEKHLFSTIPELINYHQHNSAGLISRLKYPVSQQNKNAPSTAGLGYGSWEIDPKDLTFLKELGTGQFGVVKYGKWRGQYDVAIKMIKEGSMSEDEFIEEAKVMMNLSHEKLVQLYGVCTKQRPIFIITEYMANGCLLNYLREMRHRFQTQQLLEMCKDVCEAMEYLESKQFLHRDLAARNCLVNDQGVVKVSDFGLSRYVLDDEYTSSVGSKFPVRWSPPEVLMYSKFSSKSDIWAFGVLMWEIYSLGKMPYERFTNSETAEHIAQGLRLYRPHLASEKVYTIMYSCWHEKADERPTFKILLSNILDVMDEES
FGFR1, sequence (P11362 22-822): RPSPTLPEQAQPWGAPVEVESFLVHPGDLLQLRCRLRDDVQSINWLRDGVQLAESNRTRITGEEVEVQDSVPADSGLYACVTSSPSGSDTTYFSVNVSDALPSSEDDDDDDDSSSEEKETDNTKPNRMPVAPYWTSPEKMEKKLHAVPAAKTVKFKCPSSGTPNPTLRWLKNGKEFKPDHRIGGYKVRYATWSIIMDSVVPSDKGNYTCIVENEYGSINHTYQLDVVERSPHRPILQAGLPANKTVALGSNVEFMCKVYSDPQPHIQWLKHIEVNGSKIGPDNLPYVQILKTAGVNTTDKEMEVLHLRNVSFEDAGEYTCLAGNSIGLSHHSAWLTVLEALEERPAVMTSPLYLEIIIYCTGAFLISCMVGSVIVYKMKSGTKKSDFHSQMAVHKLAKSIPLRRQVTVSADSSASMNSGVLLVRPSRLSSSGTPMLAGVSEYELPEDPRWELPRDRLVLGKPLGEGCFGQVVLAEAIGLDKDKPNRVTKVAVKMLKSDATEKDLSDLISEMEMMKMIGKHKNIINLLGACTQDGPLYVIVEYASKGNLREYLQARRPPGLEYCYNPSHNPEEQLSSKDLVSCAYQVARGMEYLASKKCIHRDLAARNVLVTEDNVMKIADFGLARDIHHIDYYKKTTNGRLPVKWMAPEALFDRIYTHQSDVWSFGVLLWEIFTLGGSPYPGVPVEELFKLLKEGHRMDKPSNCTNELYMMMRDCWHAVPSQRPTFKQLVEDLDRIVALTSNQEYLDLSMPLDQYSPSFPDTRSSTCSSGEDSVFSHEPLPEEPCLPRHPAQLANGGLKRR
JAK2, sequence (O60674 whole entry): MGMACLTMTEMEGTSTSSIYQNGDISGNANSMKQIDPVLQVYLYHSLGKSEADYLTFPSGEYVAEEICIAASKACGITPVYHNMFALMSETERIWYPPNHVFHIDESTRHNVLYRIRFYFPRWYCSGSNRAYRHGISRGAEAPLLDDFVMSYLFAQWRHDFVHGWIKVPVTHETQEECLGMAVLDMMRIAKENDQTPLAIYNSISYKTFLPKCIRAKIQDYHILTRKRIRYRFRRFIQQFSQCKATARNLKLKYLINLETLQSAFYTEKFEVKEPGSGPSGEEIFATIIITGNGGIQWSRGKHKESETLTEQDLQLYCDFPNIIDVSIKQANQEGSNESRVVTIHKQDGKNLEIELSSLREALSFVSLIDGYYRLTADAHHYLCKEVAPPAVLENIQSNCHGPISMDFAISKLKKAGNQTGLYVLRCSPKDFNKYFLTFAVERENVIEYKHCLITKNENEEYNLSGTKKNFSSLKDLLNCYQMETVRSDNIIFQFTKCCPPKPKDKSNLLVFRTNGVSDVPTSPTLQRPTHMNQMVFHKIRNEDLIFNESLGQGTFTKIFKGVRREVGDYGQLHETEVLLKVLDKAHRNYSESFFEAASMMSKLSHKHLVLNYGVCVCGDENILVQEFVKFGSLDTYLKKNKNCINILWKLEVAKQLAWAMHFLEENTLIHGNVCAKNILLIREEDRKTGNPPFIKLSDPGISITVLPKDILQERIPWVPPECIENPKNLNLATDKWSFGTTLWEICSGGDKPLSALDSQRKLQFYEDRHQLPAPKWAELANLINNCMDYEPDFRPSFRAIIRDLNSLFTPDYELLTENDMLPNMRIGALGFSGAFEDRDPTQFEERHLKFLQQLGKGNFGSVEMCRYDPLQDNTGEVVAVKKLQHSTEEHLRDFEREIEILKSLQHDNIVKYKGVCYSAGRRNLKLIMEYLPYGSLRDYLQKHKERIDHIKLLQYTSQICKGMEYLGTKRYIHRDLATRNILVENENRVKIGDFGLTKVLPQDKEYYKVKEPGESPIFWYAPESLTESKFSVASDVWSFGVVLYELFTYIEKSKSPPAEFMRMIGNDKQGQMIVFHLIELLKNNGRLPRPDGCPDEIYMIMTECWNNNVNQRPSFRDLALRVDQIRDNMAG
EGFR (ErbB1), sequence (P00533 25-1210): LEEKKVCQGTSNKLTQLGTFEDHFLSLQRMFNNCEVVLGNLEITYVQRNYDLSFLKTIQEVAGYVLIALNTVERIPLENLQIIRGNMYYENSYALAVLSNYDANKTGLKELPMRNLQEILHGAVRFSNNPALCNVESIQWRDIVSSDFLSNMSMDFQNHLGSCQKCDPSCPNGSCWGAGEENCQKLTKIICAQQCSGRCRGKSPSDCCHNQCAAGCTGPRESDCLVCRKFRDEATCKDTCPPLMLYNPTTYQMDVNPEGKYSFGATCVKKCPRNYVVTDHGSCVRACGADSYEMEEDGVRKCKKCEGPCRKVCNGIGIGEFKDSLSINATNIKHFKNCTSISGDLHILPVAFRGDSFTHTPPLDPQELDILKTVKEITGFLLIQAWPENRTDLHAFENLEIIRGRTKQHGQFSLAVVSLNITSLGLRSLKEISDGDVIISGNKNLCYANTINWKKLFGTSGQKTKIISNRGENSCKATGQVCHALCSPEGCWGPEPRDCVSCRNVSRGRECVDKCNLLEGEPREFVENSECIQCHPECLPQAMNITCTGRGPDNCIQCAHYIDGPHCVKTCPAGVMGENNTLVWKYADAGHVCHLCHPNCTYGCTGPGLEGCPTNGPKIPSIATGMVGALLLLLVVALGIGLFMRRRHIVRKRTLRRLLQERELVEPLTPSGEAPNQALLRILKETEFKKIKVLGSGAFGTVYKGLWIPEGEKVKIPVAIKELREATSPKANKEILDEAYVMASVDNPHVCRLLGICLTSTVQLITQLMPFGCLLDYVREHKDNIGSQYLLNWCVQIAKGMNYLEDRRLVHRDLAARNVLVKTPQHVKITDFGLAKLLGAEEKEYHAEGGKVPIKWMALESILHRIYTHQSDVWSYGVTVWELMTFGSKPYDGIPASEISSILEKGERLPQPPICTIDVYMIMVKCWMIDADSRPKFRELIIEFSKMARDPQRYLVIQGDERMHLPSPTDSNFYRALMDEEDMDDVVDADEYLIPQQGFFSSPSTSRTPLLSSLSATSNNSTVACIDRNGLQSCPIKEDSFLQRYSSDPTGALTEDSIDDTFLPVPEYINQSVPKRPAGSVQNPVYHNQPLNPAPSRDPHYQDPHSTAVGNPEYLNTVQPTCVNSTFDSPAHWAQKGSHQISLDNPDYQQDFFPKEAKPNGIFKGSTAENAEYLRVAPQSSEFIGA
EGFR (ErbB1) T790M L858R, sequence (P00533 25-1210 T790M/L858R): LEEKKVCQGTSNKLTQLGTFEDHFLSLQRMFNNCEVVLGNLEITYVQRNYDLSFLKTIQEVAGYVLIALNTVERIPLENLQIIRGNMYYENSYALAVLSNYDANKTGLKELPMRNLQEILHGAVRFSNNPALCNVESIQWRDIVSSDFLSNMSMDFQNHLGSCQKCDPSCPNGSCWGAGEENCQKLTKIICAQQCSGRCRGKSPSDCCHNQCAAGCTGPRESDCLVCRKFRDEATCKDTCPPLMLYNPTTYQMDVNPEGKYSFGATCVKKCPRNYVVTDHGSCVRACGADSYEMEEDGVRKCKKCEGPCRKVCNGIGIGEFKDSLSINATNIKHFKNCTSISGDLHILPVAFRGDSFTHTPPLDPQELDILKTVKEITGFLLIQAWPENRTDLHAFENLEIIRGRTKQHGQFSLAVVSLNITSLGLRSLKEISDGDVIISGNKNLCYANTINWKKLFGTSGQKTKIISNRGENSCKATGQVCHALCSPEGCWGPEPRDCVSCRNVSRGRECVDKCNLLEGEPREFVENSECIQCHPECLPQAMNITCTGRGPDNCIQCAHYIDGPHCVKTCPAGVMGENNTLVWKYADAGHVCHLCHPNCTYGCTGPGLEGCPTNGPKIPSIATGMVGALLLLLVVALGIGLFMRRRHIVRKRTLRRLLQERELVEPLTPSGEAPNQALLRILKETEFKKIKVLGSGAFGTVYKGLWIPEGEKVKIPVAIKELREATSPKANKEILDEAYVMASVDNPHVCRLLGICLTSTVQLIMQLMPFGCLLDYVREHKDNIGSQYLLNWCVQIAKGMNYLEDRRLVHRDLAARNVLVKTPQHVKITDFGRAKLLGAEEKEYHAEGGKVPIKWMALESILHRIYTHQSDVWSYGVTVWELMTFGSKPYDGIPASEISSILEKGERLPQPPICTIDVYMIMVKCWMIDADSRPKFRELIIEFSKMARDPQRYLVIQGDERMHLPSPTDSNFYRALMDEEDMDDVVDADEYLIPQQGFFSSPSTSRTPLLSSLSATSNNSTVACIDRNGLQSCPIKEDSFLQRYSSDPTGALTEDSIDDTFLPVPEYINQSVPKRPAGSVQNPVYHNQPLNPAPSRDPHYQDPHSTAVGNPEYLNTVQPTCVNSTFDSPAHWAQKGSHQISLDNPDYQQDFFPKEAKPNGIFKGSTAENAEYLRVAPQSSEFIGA
Experimental for H1299 cells: (§4) Inhibition of cell growth by compounds was measured using MTT assay (Mosmann, T., Journal of Immunological Methods, 1983, 65, 55-63). Tumor cell lines were purchased from ATCC (American Type Culture Collection, Manassas, Va.). All cell lines were maintained in RPMI 1640 (Hyclone) supplemented with 10% fetal bovine serum (FBS, Hyclone), glutamine (2 mM, Hyclone), and antibiotics (penicillin 100 U/mL and streptomycin 50 μg/mL) at 37° C. in a humidified atmosphere of 5% CO2 in air. Taxol (as a positive control. Sigma) and compounds were dissolved in DMSO (Sigma), and the final concentration of DMSO in the medium was 1%. Tumor cells were plated in 96-well plates at densities of about 4000 cells/well of a 96-well plate and allowed to adhere/grow for 24 h. They were then treated with various concentrations of drug for 72 h, 3-(4,5-Dimethylthiazol-2-yl)-2,5-diphenyltetrazolium bromide (MTT, Sigma) was used to determine the number of viable cells at the time of compound addition and the number of cells remaining after 72 h compound exposure. The number of cells remaining after 72 h was compared to the number of viable cells at the time of compound addition by measuring the absorbance at 570 nm, allowing for the calculation of growth inhibition.
(§5) All concentrations of compounds were tested in triplicate and controls were averaged over 4 wells. IC50 was calculated by plotting the concentration of compound vs the percentage of inhibition in treated wells using GraphPad Prism 5.
Experimental for H3255 cells: as §4, §5
Experimental for HCC827 cells: Taxol (as a positive control. Sigma) and compounds were dissolved in DMSO (Sigma), and the final concentration of DMSO in the medium was 1%. Tumor cells were plated in 96-well plates at densities of about 4000 cells/well of a 96-well plate and allowed to adhere/grow for 24 h. They were then treated with various concentrations of drug for 72 h, 3-(4,5-Dimethylthiazol-2-yl)-2,5-diphenyltetrazolium bromide (MTT, Sigma) was used to determine the number of viable cells at the time of compound addition and the number of cells remaining after 72 h compound exposure. The number of cells remaining after 72 h was compared to the number of viable cells at the time of compound addition by measuring the absorbance at 570 nm, allowing for the calculation of growth inhibition.
as §5
The scale utilized in Tables 5 is as follows: +++ less than 100 nM; ++ between 100 nM and 500 nM; and + greater than 500 nM.

With `C=CC(=O)Nc1cccc(-c2cccc3cnc(Nc4ccc(N5CCN(C(C)=O)CC5)nc4)nc23)c1` [Example C036, N-(3-(2-((6-(4-acetylpiperazin-1-yl)pyridin-3-yl)amino)quinazolin-8-yl)phenyl)acrylamide], at FGFR1, the inhibition at 0.041 µM was less than 50%. Moreover, the IC50 in the assay with HCC827 cells is less than 0.1 µM; in the assay on H1299 cells, greater than 0.5 µM; in the assay on H1975 cells, greater than 0.5 µM.

Turning to `C=CC(=O)Nc1cccc(-c2c(F)ccc3cnc(Nc4ccc(N5CCN(CCF)CC5)cc4)nc23)c1` [Example C088, N-(3-(7-fluoro-2-((4-(4-(2-fluoroethyl)piperazin-1-yl)phenyl)amino)quinazolin-8-yl)phenyl)acrylamide], on EGFR (ErbB1), the inhibition at 0.041 µM was greater than 50%. Moreover, the inhibition at 0.0137 µM at EGFR (ErbB1) T790M L858R is greater than 50%. Further, the IC50 at EGFR (ErbB1) T790M L858R was less than 0.1 µM; in the assay on A431 cells, greater than 0.5 µM; in the assay on H3255 cells, greater than 0.5 µM; in the assay on H1299 cells, greater than 0.5 µM; in the assay with H1975 cells it was less than 0.1 µM.

`Fc1ccc(OCCN2CCOCC2)cc1-c1cccc2cnc(Nc3ccc(N4CCOCC4)cc3)nc12` [Example C023, 8-(2-fluoro-5-(2-morpholinoethoxy)phenyl)-N-(4-morpholinophenyl)quinazolin-2-amine]: the inhibition at 1 µM on EGFR (ErbB1) and on EGFR (ErbB1) T790M L858R was less than 50% each time. Besides, the inhibition at 0.041 µM at BTK, at JAK2 and at FGFR1 was less than 50% in each case. Besides, the IC50 in the assay with HCC827 cells and in the assay with H1975 cells was greater than 0.5 µM throughout.

Regarding `C=CC(=O)Nc1cccc(-c2cccc3cnc(Nc4ccc(NC5CN(CCO)C5)cc4)nc23)c1` [Example C099, N-(3-(2-((4-((1-(2-hydroxyethyl)azetidin-3-yl)amino)phenyl)amino)quinazolin-8-yl)phenyl)acrylamide], the inhibition at 0.041 µM at EGFR (ErbB1) was greater than 50%. Moreover, the IC50 was less than 0.1 µM at EGFR (ErbB1); less than 0.1 µM at EGFR (ErbB1) T790M L858R; less than 0.1 µM on BTK; 0.1 to 0.5 µM in the assay with A431 cells; greater than 0.5 µM with H3255 cells; greater than 0.5 µM in the assay on H1299 cells. Further, the IC50 with H1975 cells is less than 0.1 µM. In addition, the inhibition at 0.0137 µM on EGFR (ErbB1) T790M L858R was greater than 50%.

With `C=CC(=O)Nc1cccc(-c2cccc3cnc(Nc4ccc(N5CCN(C)CC5)cc4)nc23)c1Cl` [Example C054, N-(2-chloro-3-(2-((4-(4-methylpiperazin-1-yl)phenyl)amino)quinazolin-8-yl)phenyl)acrylamide], the inhibition at 0.041 µM on EGFR (ErbB1), at BTK and at JAK2 was greater than 50% in each case. The inhibition at 0.0137 µM at EGFR (ErbB1) T790M L858R is greater than 50%. The IC50 is less than 0.1 µM on EGFR (ErbB1) T790M L858R, greater than 0.5 µM with A431 cells and 0.1 to 0.5 µM with H1975 cells.

On to `C=CC(=O)Nc1cccc(-c2c(C)ccc3cnc(Nc4ccc(N5CCN(C)CC5)cc4)nc23)c1` [Example C034, N-(3-(7-methyl-2-((4-(4-methylpiperazin-1-yl)phenyl)amino)quinazolin-8-yl)phenyl)acrylamide], for which, on EGFR (ErbB1), the inhibition at 0.041 µM was greater than 50%. Further, the inhibition at 1 µM at EGFR (ErbB1) was greater than 50%. Moreover, the IC50 on EGFR (ErbB1) is less than 0.1 µM; on EGFR (ErbB1) T790M L858R, less than 0.1 µM; in the assay on A431 cells it was greater than 0.5 µM; in the assay on HCC827 cells, less than 0.1 µM; with H1299 cells, greater than 0.5 µM; in the assay with H1975 cells, less than 0.1 µM.

For `C=CC(=O)Nc1cccc(-c2cccc3cnc(Nc4ccc(N5CCN(C)CC5)c(C(N)=O)c4)nc23)c1` [Example C085, 5-((8-(3-acrylamidophenyl)quinazolin-2-yl)amino)-2-(4-methylpiperazin-1-yl)benzamide], the inhibition at 0.041 µM at EGFR (ErbB1) is less than 50%. Further, the IC50 was less than 0.1 µM at EGFR (ErbB1) T790M L858R; less than 0.1 µM on BTK; 0.1 to 0.5 µM in the assay on A431 cells; greater than 0.5 µM in the assay with H3255 cells; greater than 0.5 µM in the assay with H1299 cells; less than 0.1 µM with H1975 cells.

As to `C=CC(=O)Nc1cccc(-c2c(C)ccc3cnc(Nc4ccc(N5CCOCC5)cc4)nc23)c1` [Example C033, N-(3-(7-methyl-2-((4-morpholinophenyl)amino)quinazolin-8-yl)phenyl)acrylamide], the inhibition at 1 µM on EGFR (ErbB1) and at EGFR (ErbB1) T790M L858R was greater than 50% throughout. The figures for the inhibition at 0.041 µM on BTK and on JAK2 were greater than 50% and less than 50%, respectively. Moreover, the IC50 is less than 0.1 µM in the assay on HCC827 cells, greater than 0.5 µM in the assay on H1299 cells and 0.1 to 0.5 µM with H1975 cells.

Consider `Clc1ccccc1-c1cccc2cnc(Nc3ccc(N4CCNCC4)cc3)nc12` [Example C026, 8-(2-chlorophenyl)-N-(4-(piperazin-1-yl)phenyl)quinazolin-2-amine], for which the inhibition at 1 µM on EGFR (ErbB1) T790M L858R was greater than 50%. The values for the inhibition at 0.041 µM at BTK, on JAK2 and on FGFR1 were less than 50%, greater than 50% and greater than 50%, respectively. In addition, the IC50 with HCC827 cells and with H1975 cells was greater than 0.5 µM each time.

`C=CC(=O)Nc1cccc(-c2cccc3cnc(Nc4ccc(N5CCN(C)CC5)nc4OC)nc23)c1` [Example C055, N-(3-(2-((2-methoxy-6-(4-methylpiperazin-1-yl)pyridin-3-yl)amino)quinazolin-8-yl)phenyl)acrylamide]: the inhibition at 0.041 µM on EGFR (ErbB1), at BTK and at JAK2 was less than 50% in each case. The inhibition at 0.0137 µM on EGFR (ErbB1) T790M L858R is greater than 50%. Also, the IC50 in the assay with A431 cells and in the assay with H1975 cells was 0.1 to 0.5 µM each time.

Turning to `CC(=O)Nc1cccc(-c2cccc3cnc(Nc4ccc(N5CCN(C)CC5)cc4)nc23)c1` [Example C022, N-(3-(2-((4-(4-methylpiperazin-1-yl)phenyl)amino)quinazolin-8-yl)phenyl)acetamide], the inhibition at 1 µM on EGFR (ErbB1) T790M L858R is greater than 50%. Moreover, the inhibition at 0.041 µM at BTK, at JAK2 and at FGFR1 was greater than 50% throughout. The IC50 in the assay with HCC827 cells is less than 0.1 µM; in the assay with H1975 cells it was greater than 0.5 µM.
